Test results taken from patent US12390447B2, “Sirtuin 6 protein deacylase (SIRT6) activators” (Wisconsin Alumni Research Foundation, priority 2019, dated 2025).

Legend:
SIRT6 [1] = molecular target: T1, SIRT6 (Homo sapiens, UniProt Q8N6T7); test: Steady-state kinetic analysis of SIRT6 deacetylation (Michaelis-Menten); assay type: biochemical; details: in the presence of 100 μM CL4, 50 μM TTNPB, 50 μM LPA or 50 μM LGly
Protocol: FIGS. 1A-F illustrate the identification of novel SIRT6 activators. (1A) Compound libraries BML-2803, BML-2800, and an additional set of 178 molecules were screened at 100 μM for their ability to stimulate SIRT6 (1 μM) deacetylation of H3K9ac peptide (20 μM) in the presence of 0.5 mM NAD^+. SIRT6 activity was measured by HPLC quantification of H3K9ac and deacetylated product (inset) and fold activations relative to DMSO control were determined and compiled. (1B) Fold-activation of SIRT6 (1 μM) determined in the presence of either 0-400 μM CL4, 0-150 μM TTNPB, 0-100 μM Lysophosphatidic acid (LPA), or 0-200 μM linoleoylglycine (LGly). Maximum fold-activation and EC50 determined by sigmoidal curve fit. […] Constants Km, H3K9ac and kcat were determined by fitting data to Michaelis-Menten equation. (1D) Fold-activations of SIRT1 (0.1 μM), SIRT2 (0.2 μM), SIRT3 (1 μM), SIRT5 (2 μM), and SIRT6 (1 μM) determined in the presence of CL4 (100 μM), TTNPB (50 μM), and LPA (50 μM) relative to DMSO control against 20 μM H3K9ac peptide and 0.5 mM NAD^+. […]
FIGS. 2A-D show results characterizing SIRT6 activator CL5D. […] (2B) SIRT6 demyristoylase activity determined in the presence of 0-25 μM H3K9myr peptide, 0.5 mM NAD^+ and 5% DMSO (•), 12.5 μM CL5D (▪), 25 μM CL5D (♦), and 50 μM CL5D (▴). […]

SIRT6 [2] = molecular target: T1, SIRT6; test: Small molecule SIRT6 activator screen (H3K9ac peptide deacetylation, HPLC); assay type: biochemical; details: compound 100 μM; SIRT6 1 μM; H3K9ac peptide 20 μM; 0.5 mM NAD+
Protocol: Mastermix containing SIRT6, buffer, and H3K9ac peptide were distributed to wells using Microflex peristaltic dispenser (Beckman). Plates were spun and preheated to 37° C. before addition of NAD^+ using peristaltic dispenser. After 60 minutes reactions were quenched with 2% TFA final using peristaltic dispenser then sealed and spun again before in-house HPLC separation and quantification of substrate and product peptides. Reaction conditions were 1 μM SIRT6, 0.5 mM NAD^+, […] (4-16), 20 mM potassium phosphate pH 7.5, 10% DMSO, and either 10 or 100 μM compound determined by 10-fold dilution of stock library concentration.
All sirtuin deacylation assays were carried out at 37° C. in 20 mM potassium phosphate pH 7.5 with 0.5 mM NAD^+, 10% DMSO, and 20 μM H3K9ac or H3K9myr peptides, unless otherwise noted in legend, and quenched by the addition of 2% TFA final. Steady-state reactions were constrained to less than 20% substrate turnover to prevent product inhibition. A variety of times were required to monitor SIRT6 deacetylation (2-60 minutes) under this restraint given the ability to strongly activate catalysis. In these cases, specific activities were determined and either reported as is or as fold-activation of specific activity. […] Deacetylation reactions were analyzed using a gradient of 33-100% B (30% acetonitrile with 0.05% TFA) in 8 min at 1.6 mL min^−1. Demyristoylation reactions were analyzed using a gradient of 3 to 100% B (acetonitrile with 0.05% TFA) in 10 min at 1.6 mL min^−1. The product and substrate peaks were quantified and ratio of these allowed for quantification of product formation.

T1 sequence (Q8N6T7 whole entry): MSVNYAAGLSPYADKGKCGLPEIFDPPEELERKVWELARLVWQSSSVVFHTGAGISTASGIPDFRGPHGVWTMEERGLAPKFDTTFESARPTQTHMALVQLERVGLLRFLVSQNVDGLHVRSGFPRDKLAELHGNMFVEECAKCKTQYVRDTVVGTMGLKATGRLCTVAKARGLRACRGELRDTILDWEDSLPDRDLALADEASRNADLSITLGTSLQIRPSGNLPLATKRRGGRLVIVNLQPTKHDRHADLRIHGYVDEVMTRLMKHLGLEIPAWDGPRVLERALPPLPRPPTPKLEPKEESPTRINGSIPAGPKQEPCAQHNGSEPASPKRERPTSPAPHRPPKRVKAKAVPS

SMILES | kcat (SIRT6 [1]) [s^−1 × 10^−3] | F.A. (fold-activation of SIRT6 relative to DMSO control) (SIRT6 [2]) [fold]
O=C(O)c1ccc2c(c1)C(=O)N(c1ccc(NC(=O)c3ccc(Cl)cc3Cl)c(Cl)c1)C2=O [CL-4, 2-(3-chloro-4-(2,4-dichlorobenzamido)phenyl)-1,3-dioxoisoindoline-5-carboxylic acid] | 1.5 ± 0.3 | 18
CCCCC/C=C\C/C=C\CCCCCCCC(=O)NCC(=O)O [N-Linoleoylglycine, linoleoyl-glycine, reference compound] | 2.8 ± 0.1 | 29
